Experimental data published in patent US20090149417A1, “Methods and compositions for the treatment of cancer using benzopyrone-type PARP inhibitors” (priority 2007, published 2009).

Columns and labels:
[1] = tested on: human tumor cells including pancreatic, breast, uterine, lung, prostate, and ovarian cancer cells; assay: Proliferation of human tumor cells in vitro (summary); type: cell-based
[2] = tested on: L3.6 μl PC cells; assay: Luciferase-expressing pancreatic cancer orthotopic nude mouse model; type: in vivo; conditions: 100 mg/kg/day 2/week×4 weeks
Description: The therapeutic efficacy of IIIg on tumor growth and survival is evaluated in different luciferase-expressing pancreatic cancer orthotopic nude mouse models using an IVIS100 Imaging System, allowing a quantitative real time monitoring of tumor growth.
Mice are monitored daily for signs of toxicity including weight loss, diarrhea, inactivity, and general appearance.

[3] = tested on: human SW620 colon adenocarcinoma; assay: Human SW620 colon adenocarcinoma xenograft model in nude mice; type: in vivo
Description: The animals are fed ad libitu water (reverse osmosis, 1 ppm Cl) and NIH 31 Modified and Irradiated Lab Diet® consisting of 18.0% crude protein, 5.0% crude fat, and 5.0% crude fiber. The mice are housed on irradiated ALPHA-dri® bed-o-cobs® Laboratory Animal Bedding in static microisolators on a 12-hour light cycle at 21-22° C. (70-72° F.) and 40-60% humidity. PRC specifically complies with the recommendations of the Guide for Care and Use of Laboratory Animals with respect to restraint, husbandry, surgical procedures, feed and fluid regulation, and veterinary care. […]
The human SW620 colon adenocarcinoma utilized in the present study is maintained in nude mice by serial engraftment. […] Tumors are monitored twice weekly and then daily as their volumes approached 80-120 mm^3. […] Tumor size, in mm3, is calculated from: […]
Tumors are calipered twice weekly for the duration of the study. […] The time to endpoint (TTE) for each mouse is calculated according to the following equation: […]
where TTE is expressed in days, endpoint volume is in mm3, b is the intercept, and m is the slope of the line obtained by linear regression of a log-transformed tumor growth data set. […] The calculated TTE is usually less than the day on which an animal is euthanized for tumor size. […]

## O=c1ccc2c(I)c([N+](=O)[O-])ccc2o1 [IIIg, 5-iodo-6-nitro-benzopyrone]
[1]
  Proliferation of human tumor cells: inhibits the proliferation
[2]
  Signs of toxicity: without signs of toxicity
  Survival: prolongs survival
  Tumor burden: significantly reduces the tumor burden
[3]; biweekly intraperitoneal injection, 50 mg/kg
  Survival of tumor-bearing animals: prolongs survival
[3]; once-daily or twice-weekly administration
  Tumor growth: inhibits tumor growth
